Experimental data from ChEMBL document CHEMBL4622857, “Is GPR146 really the receptor for proinsulin C-peptide?” (Bioorg Med Chem Lett, 2020).
Calls of active or inactive are those of the source. No cut-off for these calls is given here.

Columns and labels:
[1] = target: G-protein coupled receptor 146 (Homo sapiens) (UniProt Q96CH1); test: Activation of human GPR146 receptor expressed in HK2 cells assessed as increase in dynamic mass redistribution response by DMR assay; assay type: cell-based
[2] = target: G-protein coupled receptor 146 (Homo sapiens) (UniProt Q96CH1); test: Activation of human GPR146 receptor expressed in HEK293 cells assessed as increase in dynamic mass redistribution response by DMR assay; assay type: cell-based
[3] = target: G-protein coupled receptor 146 (Homo sapiens) (UniProt Q96CH1); test: Activation of human GPR146 expressed in HEK293 cells assessed as increase in dynamic mass redistribution response up to 100 uM by DMR assay; assay type: cell-based
[4] = target: G-protein coupled receptor 146 (Homo sapiens) (UniProt Q96CH1); test: Activation of human GPR146 expressed in HK2 cells assessed as increase in dynamic mass redistribution response up to 100 uM by DMR assay; assay type: cell-based
[5] = target: G-protein coupled receptor 146 (Homo sapiens) (UniProt Q96CH1); test: Agonist activity at human GPR146 receptor expressed in HEK293 cells assessed as recruitment of beta-arrestin up to 100 uM by PathHunter assay; assay type: cell-based
[6] = Drug uptake in human HK2 cells at 0.1 to 0.5 uM using Cy3-labeled compound by fluorescence microscopy; assay type: ADME, cell-based; conditions: hk-2, 0.5 µM
[7] = Drug uptake in CHOK1 cells at 0.1 to 0.5 uM by using Cy3-labeled compound by fluorescence microsocpy; assay type: ADME, cell-based, Cricetulus griseus; conditions: chinese hamster, cho-k1, 0.5 µM
[8] = Drug uptake in CHOK1 cells expressing human GPR146 at 0.1 to 0.5 uM by using Cy3-labeled compound by fluorescence microsocpy; assay type: ADME, cell-based, Cricetulus griseus; conditions: chinese hamster, cho-k1, 0.5 µM
[9] = target: G-protein coupled receptor 146 (Homo sapiens) (UniProt Q96CH1); test: Activation of human GPR146 expressed in CHO-K1 cells assessed as increase in dynamic mass redistribution response upto 100 uM by DMR assay; assay type: cell-based
[10] = target: Glucagon-like peptide 1 receptor (Homo sapiens) (UniProt P43220); test: Activation of human GLP1R expressed in CHO-K1 cells assessed as increase in dynamic mass redistribution response upto 100 uM by DMR assay; assay type: cell-based
Glucagon-like peptide 1 receptor (Homo sapiens), sequence (P43220 whole entry): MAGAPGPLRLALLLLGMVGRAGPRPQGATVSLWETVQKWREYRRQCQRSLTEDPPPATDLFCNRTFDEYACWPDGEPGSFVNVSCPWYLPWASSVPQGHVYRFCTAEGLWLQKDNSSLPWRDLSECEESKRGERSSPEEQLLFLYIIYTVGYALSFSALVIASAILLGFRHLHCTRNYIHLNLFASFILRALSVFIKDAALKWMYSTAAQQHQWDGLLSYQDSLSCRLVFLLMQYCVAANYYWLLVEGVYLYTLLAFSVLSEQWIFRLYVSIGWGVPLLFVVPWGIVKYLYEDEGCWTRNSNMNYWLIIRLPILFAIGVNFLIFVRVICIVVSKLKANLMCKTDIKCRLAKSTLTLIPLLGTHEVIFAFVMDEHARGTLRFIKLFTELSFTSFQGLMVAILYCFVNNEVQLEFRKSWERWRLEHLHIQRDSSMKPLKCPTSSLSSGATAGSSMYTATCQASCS

[11] = target: G-protein coupled receptor 146 (Homo sapiens) (UniProt Q96CH1); test: Activation of human GPR146 expressed in CHO-K1 cells assessed as increase in dynamic mass redistribution response at 100 uM by DMR assay; assay type: cell-based
[12] = target: Glucagon-like peptide 1 receptor (Homo sapiens) (UniProt P43220); test: Activation of human GLP1R expressed in CHO-K1 cells assessed as increase in dynamic mass redistribution response at 100 uM by DMR assay; assay type: cell-based

G-protein coupled receptor 146 (Homo sapiens), sequence (Q96CH1 whole entry): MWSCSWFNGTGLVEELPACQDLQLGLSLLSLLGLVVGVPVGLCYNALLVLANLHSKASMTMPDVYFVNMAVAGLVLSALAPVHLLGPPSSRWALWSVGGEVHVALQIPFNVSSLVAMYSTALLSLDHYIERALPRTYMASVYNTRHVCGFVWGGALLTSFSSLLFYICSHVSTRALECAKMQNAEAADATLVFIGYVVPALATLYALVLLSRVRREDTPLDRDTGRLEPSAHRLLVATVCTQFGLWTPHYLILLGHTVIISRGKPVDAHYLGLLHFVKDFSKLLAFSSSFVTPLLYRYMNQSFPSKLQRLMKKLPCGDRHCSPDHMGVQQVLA

Row | Activity [1] | Activity [2] | Activity [3] | Activity [4] | Activity [5] | Drug uptake [6] | Drug uptake [7] | Drug uptake [8] | Activity [9] | Activity [10] | Activity [11] | Activity [12] | Compound
1 | Active | Active |  |  |  |  |  |  |  |  |  |  | C[N+](C)(C)CCOC(N)=O
2 |  |  | inactive | inactive | inactive | Not Active | Not Active | Not Active | Active | Active |  |  | H-GADQPVGSEQQVQAGGLEGGLLLGLELPSEA-OH
3 |  |  | inactive | inactive | inactive | Not Active | Not Active | Not Active | Active | Active |  |  | H-EVEDPQVEQLELGGSPGDLQTLALEVARQ-OH
4 |  |  | inactive | inactive | inactive | Not Active | Not Active | Not Active |  |  | Active | inactive | CC(C)C[C@H](NC(=O)[C@H](C)NC(=O)[C@H](CC(C)C)NC(=O)[C@@H]1CCCN1C(=O)[C@H](CCC(N)=O)NC(=O)[C@H](CC(C)C)NC(=O)[C@H](CO)NC(=O)CNC(=O)[C@H](C)NC(=O)CNC(=O)[C@@H]1CCCN1C(=O)CNC(=O)CNC(=O)CNC(=O)[C@H](CC(C)C)NC(=O)[C@H](CCC(=O)O)NC(=O)[C@@H](NC(=O)[C@H](CCC(N)=O)NC(=O)CNC(=O)[C@@H](NC(=O)[C@H](CCC(N)=O)NC(=O)[C@H](CC(C)C)NC(=O)[C@H](CC(=O)O)NC(=O)[C@H](CCC(=O)O)NC(=O)[C@H](C)NC(=O)[C@@H](N)CCC(=O)O)C(C)C)C(C)C)C(=O)N[C@@H](CCC(=O)O)C(=O)NCC(=O)N[C@@H](CO)C(=O)N[C@@H](CC(C)C)C(=O)N[C@@H](CCC(N)=O)C(=O)O [HUMAN C-PEPTIDE]
5 |  |  | inactive | inactive | inactive | Not Active | Not Active | Not Active | Active | Active |  |  | H-EGSLQ-OH
6 |  |  |  | inactive | inactive | Not Active | Not Active | Not Active |  | Active | Active |  | H-EVARQ-OH
